Measured values as given in patent US11633416B1, “Oral formulations of CD73 compounds” (ARCUS BIOSCIENCES, INC., priority 2020, dated 2023).
Like-named read-outs stand apart in the source and are kept apart here.

Assay: Oral exposure in cynomolgus monkeys, compound alone or with excipient in capsules; plasma by LC-MS/MS
Format: in vivo
Details: enteric capsule; for MRT inf: read-out: MRT0-∞
Source text: The influence of different excipients on the bioavailability of Compound (Ia), Compound 2 and Compound 3 in cynomolgus monkeys was investigated. The excipients tested were sodium phytate, sodium citrate, sodium EDTA, cyclodextrin, sodium taurocholate, sodium polystyrene sulfate, sodium caprate, sodium phosphate, carbomer 971P and palmitoyl carnitine chloride. Generally, an appropriate quantity (as indicated in Table 1) of Compound (Ia), Compound 2 or Compound 3 and an excipient were mixed to homogeneity and transferred to capsules for dosing. In one example, Compound (Ia) (500 mg assay, 1.063 correction factor applied for to account for purity) and 2.75 g of sodium phytate (Sigma) were combined in a mortar and pestle. The mixture was ground to homogeneity then 530 mg of the white powder was transferred to enteric capsules (Size 0) prior to dosing.
[…] Compound (Ia), Compound 2 or Compound 3, either alone, or with excipient, in an enteric capsule was administered via an oral pet piller. Blood samples were collected from a peripheral vessel at designated time points, and centrifuged to obtain plasma.
Plasma samples obtained at each time point from the subjects were prepared by protein precipitation. An aliquot of 50 μL sample was added with 150 μL acetonitrile containing an internal standard ([[[(2R,3S,4R,5R)-5-[6-chloro-4-[[(1S)-2,2,2-trideuterio-1-(2-fluorophenyl)ethyl]amino]pyrazolo[3,4-b]pyridin-1-yl]-3,4-dihydroxyoxolan-2-yl]-dideuteriomethoxy]-hydroxyphosphoryl]methylphosphonic acid, 200 ng/mL in Acetonitrile). The mixture was vortexed for 15 min and then centrifuged at 4500 rpm for 15 min at 4° C. (Sorvall Legend XTR centrifuge, Thermo Scientific, Langenselbold, Germany). 80 μL of the resulting supernatant was transferred into a new plate and mixed with 160 μL water followed by LC-MS/MS analysis.
• API 4000 mass spectrometer (Applied Biosystems, Foster City, Calif.) • Shimadzu Nexera X^2 UHPLC System (Shimadzu Scientific Instruments, Canby, Oreg.) Column: SHISEIDO CAPCELL PAK INERT ADME S3 (2.00 mm×50 mm, Part No. 79001) Mobile Phase A: 8.6 mM Triethylamine, 100 mM HFIP (1,1,1,3,3,3-Hexafluoro-2-propanol) in Water Mobile Phase B: 8.6 mM Triethylamine, and 100 mM HFIP in [Acetonitrile:water (95:5, v/v) Needle wash (weak & strong): Acetone:MeCN:Water (80:20:20, v/v/v) Flow Rate: 0.50 mL/min HPLC Gradient:
• Ionization Mode: Electrospray (ESI) • Detection Mode: Negative MRM (Q1/Q3 transitions: m/z 579.0/157.0 for Compound (Ia) or Compound 3; m/z 584.0/157.0 for Internal Standard); (Q1/Q3 transitions m/z 562.2/157.0 for Compound 2; m/z 584.0/157.0 for Internal Standard)

[1] = male, cynomolgus monkey, plasma, po, 50 mg, Table 2: oral, dose 50 mg, + 275 mg sodium phytate
[2] = male, cynomolgus monkey, plasma, po, 50 mg, Table 2: oral, dose 50 mg, neat
[3] = oral, dose 50 mg, with 275 mg sodium phytate (Sigma-Aldrich, ≥5 mol sodium/mol), fasted

Exposure Enhancement (Table 2: oral, dose 50 mg, + 275 mg sodium phytate versus neat): 9.1-fold
AUC(0-inf) (male, cynomolgus monkey, plasma, po, 10 mg, with 195 mg sodium citrate, 6 mg SDS, fasted): 1940 ng·h/mL
Cmax (male, cynomolgus monkey, plasma, po, 10 mg, oral, dose 10 mg, with 195 mg sodium citrate, 6 mg SDS, fasted, read-out: Cmax): 286 ng/mL
AUC(0-inf) [1]: 122000 ng·h/mL
AUC(0-t) [1]: 88000 ng·h/mL
Tmax [1]: 3 h
Cmax (male, cynomolgus monkey, plasma, po, 50 mg, Table 2: oral, dose 50 mg, + 275 mg sodium phytate, read-out: Cmax): 3680 ng/mL
MRT inf [1]: 35.8 h
AUC(0-inf) [2]: 13400 ng·h/mL
AUC(0-t) [2]: 10300 ng·h/mL
Tmax [2]: 1.75 h
Cmax (male, cynomolgus monkey, plasma, po, 50 mg, Table 2: oral, dose 50 mg, neat, read-out: Cmax): 631 ng/mL
MRT inf [2]: 29.2 h
AUC(0-inf) (male, cynomolgus monkey, plasma, po, 50 mg, neat, fasted): 13400 ng·h/mL
AUC(0-inf) (male, cynomolgus monkey, plasma, po, 50 mg, with 25 mg sodium taurocholate, fasted): 9300 ng·h/mL
AUC(0-inf) (male, cynomolgus monkey, plasma, po, 50 mg, with 50 mg sodium phytate (Sigma-Aldrich), fasted): 59700 ng·h/mL
AUC(0-inf) (male, cynomolgus monkey, plasma, po, 50 mg, with 100 mg Na-EDTA, fasted): 154000 ng·h/mL
AUC(0-inf) (male, cynomolgus monkey, plasma, po, 50 mg, with 100 mg cyclodextrin, fasted): 8230 ng·h/mL
AUC(0-inf) (male, cynomolgus monkey, plasma, po, 50 mg, with 100 mg palmitoyl carnitine chloride, fasted): 43400 ng·h/mL
AUC(0-inf) (male, cynomolgus monkey, plasma, po, 50 mg, with 195 mg sodium citrate, 3 mg SDS, fasted): 22200 ng·h/mL
AUC(0-inf) (male, cynomolgus monkey, plasma, po, 50 mg, with 195 mg sodium citrate, 6 mg SDS, non-fasted animal): 16500 ng·h/mL
AUC(0-inf) (male, cynomolgus monkey, plasma, po, 50 mg, with 195 mg sodium citrate, 6 mg sodium dodecyl sulfate (SDS), fasted): 38300 ng·h/mL
AUC(0-inf) (male, cynomolgus monkey, plasma, po, 50 mg, with 227.5 mg sodium caprate, fasted): 20300 ng·h/mL
AUC(0-inf) (male, cynomolgus monkey, plasma, po, 50 mg, with 275 mg sodium phytate (Sigma-Aldrich, ≥5 mol sodium/mol), fasted): 109000 ng·h/mL
AUC(0-inf) (male, cynomolgus monkey, plasma, po, 50 mg, with 275 mg sodium phytate, dodecasodium, fasted): 69400 ng·h/mL
AUC(0-inf) (male, cynomolgus monkey, plasma, po, 50 mg, with 275 mg sodium phytate, hexasodium, fasted): 152000 ng·h/mL
AUC(0-inf) (male, cynomolgus monkey, plasma, po, 50 mg, with 325 mg sodium polystyrene sulfate, fasted): 41400 ng·h/mL
AUC(0-inf) (male, cynomolgus monkey, plasma, po, 50 mg, with 400 mg sodium phosphate, fasted): 20500 ng·h/mL
AUC(0-inf) (male, cynomolgus monkey, plasma, po, 50 mg, with 7% w/w carbomer 971P, fasted): 41300 ng·h/mL
Cmax (male, cynomolgus monkey, plasma, po, 50 mg, oral, dose 50 mg, neat, fasted, read-out: Cmax): 631 ng/mL
Cmax (male, cynomolgus monkey, plasma, po, 50 mg, oral, dose 50 mg, with 25 mg sodium taurocholate, fasted, read-out: Cmax): 455 ng/mL
Cmax (male, cynomolgus monkey, plasma, po, 50 mg, oral, dose 50 mg, with 50 mg sodium phytate (Sigma-Aldrich), fasted, read-out: Cmax): 1650 ng/mL
Cmax (male, cynomolgus monkey, plasma, po, 50 mg, oral, dose 50 mg, with 100 mg Na-EDTA, fasted, read-out: Cmax): 6840 ng/mL
Cmax (male, cynomolgus monkey, plasma, po, 50 mg, oral, dose 50 mg, with 100 mg cyclodextrin, fasted, read-out: Cmax): 526 ng/mL
Cmax (male, cynomolgus monkey, plasma, po, 50 mg, oral, dose 50 mg, with 100 mg palmitoyl carnitine chloride, fasted, read-out: Cmax): 3660 ng/mL
Cmax (male, cynomolgus monkey, plasma, po, 50 mg, oral, dose 50 mg, with 195 mg sodium citrate, 3 mg SDS, fasted, read-out: Cmax): 922 ng/mL
Cmax (male, cynomolgus monkey, plasma, po, 50 mg, oral, dose 50 mg, with 195 mg sodium citrate, 6 mg SDS, non-fasted animal, read-out: Cmax): 863 ng/mL
Cmax (male, cynomolgus monkey, plasma, po, 50 mg, oral, dose 50 mg, with 195 mg sodium citrate, 6 mg sodium dodecyl sulfate (SDS), fasted, read-out: Cmax): 1520 ng/mL
Cmax (male, cynomolgus monkey, plasma, po, 50 mg, oral, dose 50 mg, with 227.5 mg sodium caprate, fasted, read-out: Cmax): 912 ng/mL
Cmax (male, cynomolgus monkey, plasma, po, 50 mg, oral, dose 50 mg, with 275 mg sodium phytate (Sigma-Aldrich, ≥5 mol sodium/mol), fasted, read-out: Cmax): 3570 ng/mL
Cmax (male, cynomolgus monkey, plasma, po, 50 mg, oral, dose 50 mg, with 275 mg sodium phytate, dodecasodium, fasted, read-out: Cmax): 2970 ng/mL
Cmax (male, cynomolgus monkey, plasma, po, 50 mg, oral, dose 50 mg, with 275 mg sodium phytate, hexasodium, fasted, read-out: Cmax): 4440 ng/mL
Cmax (male, cynomolgus monkey, plasma, po, 50 mg, oral, dose 50 mg, with 325 mg sodium polystyrene sulfate, fasted, read-out: Cmax): 1420 ng/mL
Cmax (male, cynomolgus monkey, plasma, po, 50 mg, oral, dose 50 mg, with 400 mg sodium phosphate, fasted, read-out: Cmax): 700 ng/mL
Cmax (male, cynomolgus monkey, plasma, po, 50 mg, oral, dose 50 mg, with 7% w/w carbomer 971P, fasted, read-out: Cmax): 1480 ng/mL
AUC(0-inf) (male, cynomolgus monkey, plasma, po, 100 mg, with 275 mg sodium phytate (Sigma-Aldrich), fasted): 237000 ng·h/mL
Cmax (male, cynomolgus monkey, plasma, po, 100 mg, oral, dose 100 mg, with 275 mg sodium phytate (Sigma-Aldrich), fasted, read-out: Cmax): 5760 ng/mL
Exposure Enhancement (oral, dose 50 mg, with 50 mg sodium phytate (Sigma-Aldrich), relative to 50 mg Ia ( 3Na) without absorption enhancer): 4.5-fold^b
Exposure Enhancement (oral, dose 50 mg, with 100 mg Na-EDTA, relative to 50 mg Ia ( 3Na) without absorption enhancer): 11.5-fold^b
Exposure Enhancement (oral, dose 50 mg, with 100 mg palmitoyl carnitine chloride, relative to 50 mg Ia ( 3Na) without absorption enhancer): 3.2-fold^b
Exposure Enhancement (oral, dose 50 mg, with 195 mg sodium citrate, 3 mg SDS, relative to 50 mg Ia ( 3Na) neat): 1.7-fold
Exposure Enhancement (oral, dose 50 mg, with 195 mg sodium citrate, 6 mg SDS, non-fasted animal, relative to 50 mg Ia ( 3Na) without absorption enhancer): 1.2-fold^b
Exposure Enhancement (oral, dose 50 mg, with 195 mg sodium citrate, 6 mg SDS, relative to 50 mg Ia ( 3Na) without absorption enhancer): 2.9-fold^b
Exposure Enhancement (oral, dose 50 mg, with 227.5 mg sodium caprate, relative to 50 mg Ia ( 3Na) without absorption enhancer): 1.5-fold^b
Exposure Enhancement (oral, dose 50 mg, with 275 mg sodium phytate (Sigma-Aldrich), relative to 50 mg Ia ( 3Na) without absorption enhancer): 9.1-fold^b
Exposure Enhancement (oral, dose 50 mg, with 275 mg sodium phytate (Sigma-Aldrich), relative to 50 mg Ia ( 3Na) without absorption enhancer, listed as Ia ( 3Na)): 8.1-fold^b
AUC0-∞ [3]: 122,000 h*ng/mL
Cmax [3]: 3,680 ng/mL
Exposure Enhancement (oral, dose 50 mg, with 275 mg sodium phytate, dodecasodium, relative to 50 mg Ia ( 3Na) without absorption enhancer): 5.2-fold^b
Exposure Enhancement (oral, dose 50 mg, with 275 mg sodium phytate, hexasodium, relative to 50 mg Ia ( 3Na) without absorption enhancer): 11.4-fold^b
Exposure Enhancement (oral, dose 50 mg, with 325 mg sodium polystyrene sulfate, relative to 50 mg Ia ( 3Na) without absorption enhancer): 3.1-fold^b
Exposure Enhancement (oral, dose 50 mg, with 400 mg sodium phosphate, relative to 50 mg Ia ( 3Na) without absorption enhancer): 1.9-fold^b
Exposure Enhancement (oral, dose 50 mg, with 7% w/w carbomer 971P, relative to 50 mg Ia ( 3Na) without absorption enhancer): 3.1-fold^b
Compound: C[C@H](Nc1cc(Cl)nc2c1cnn2[C@@H]1O[C@H](COP(=O)(O)CP(=O)(O)O)[C@@H](O)[C@H]1O)c1ccccc1F [Ia (•3Na), (((((2R,3S,4R,5R)-5-(6-chloro-4-(((S)-1-(2-fluorophenyl)ethyl)amino)-1H-pyrazolo[3,4-b]pyridin-1-yl)-3,4-dihydroxytetrahydrofuran-2-yl)methoxy)(hydroxy)phosphoryl)methyl)phosphonic acid]
